Numbered stars: 1 amine (or outer) side, 2 acyl side, 3 side chain; on linkers, the order of the positions; unused ones are H or OH. Bridge positions count the residues as written; N and C are the ends. Square brackets hold non-standard residues; d marks the D form. Peptide text beside a SMILES is read from it. X1 = CC[C@H](C)[C@@H](N[*:1])[C@@H](O)CC(=O)O[C@H](C(=O)[C@H](C)C(=O)[*:2])C(C)C; NMeY = CN[C@@H](Cc1ccc(O)cc1)C(=O)O; dNMeL = CN[C@H](CC(C)C)C(=O)O
Columns and labels:
[1] = tested on: L1210; format: cell-based; conditions: for L1210, IC90: L1210 cells, cytotoxicity
[2] = tested on: DNA and RNA viruses; conditions: against DNA and RNA viruses; cited from earlier work
[3] = target: elongation factor-1α (EF-1α) (Homo sapiens, UniProt P68104); conditions: GEP-dependent manner; cited from earlier work
[4] = tested on: Nb2 node lymphoma cells; conditions: cited from earlier work
[5] = in vitro; cited from earlier work

Sequence of elongation factor-1α (EF-1α) (P68104 whole entry): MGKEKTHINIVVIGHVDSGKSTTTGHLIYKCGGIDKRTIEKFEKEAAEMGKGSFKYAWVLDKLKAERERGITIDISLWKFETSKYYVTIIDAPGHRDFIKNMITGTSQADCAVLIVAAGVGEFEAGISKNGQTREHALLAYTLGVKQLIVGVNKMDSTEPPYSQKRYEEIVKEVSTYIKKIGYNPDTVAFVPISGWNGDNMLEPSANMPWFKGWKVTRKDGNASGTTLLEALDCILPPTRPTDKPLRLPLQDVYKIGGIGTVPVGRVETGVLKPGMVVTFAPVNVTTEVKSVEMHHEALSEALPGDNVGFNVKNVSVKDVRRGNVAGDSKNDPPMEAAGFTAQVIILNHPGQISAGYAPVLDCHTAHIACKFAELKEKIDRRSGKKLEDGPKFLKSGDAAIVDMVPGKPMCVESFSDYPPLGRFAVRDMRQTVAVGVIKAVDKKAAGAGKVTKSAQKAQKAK

Molecule	L1210, IC90 [1] [ng/mL]	other results
CC[C@H](C)[C@H]1NC(=O)[C@@H](NC(=O)[C@@H](CC(C)C)NC)[C@@H](C)OC(=O)[C@H](Cc2ccc(OC)cc2)N(C)C(=O)[C@@H]2CCCN2C(=O)[C@H](CC(C)C)NC(=O)[C@@H](C)C(=O)[C@H](C(C)C)OC(=O)C[C@@H]1O [Didemnin A] (H-[dNMeL]T[X1]LP[NMeY](Me); ester 2-C)	75	antiviral activity [2]: exhibit antiviral activity; binding to EF-1α [3]: binds elongation factor-1α (EF-1α)
CC[C@H](C)[C@H]1NC(=O)[C@@H](NC(=O)[C@@H](CC(C)C)N(C)C(=O)[C@@H]2CCCN2C(=O)C(C)O)[C@@H](C)OC(=O)[C@H](Cc2ccc(OC)cc2)N(C)C(=O)[C@@H]2CCCN2C(=O)[C@H](CC(C)C)NC(=O)[C@@H](C)C(=O)[C@H](C(C)C)OC(=O)C[C@@H]1O (stereo partly shown) [Didemnin B]	7	binding to a site on Nb2 node lymphoma cells [4]: binds to a site on Nb2 node lymphoma cells; cytotoxicity relative to didemnin A [5]: approximately twenty times more cytotoxic than didemnin A; antiviral activity [2]: exhibit antiviral activity
L-Alaninyl-didemnin A [Alaninyl DA]	8	–
L-[Alaninyl^9 ] didemnin B [[Ala^9]DB]	–	relative bioactivity among the didemnins synthesized ([1]; preliminary assay results): the most active of the didemnins synthesized thus far
L-glutaminyl-L-[alaninyl^9 ]didemnin B [Gln-[Ala^9]DB]	200	–
L-glutaminyl-L-alaninyl-didemnin A [Glutaminyl-AlaDA]	25	–
L-pyroglutamyl-L-[alaninyl^9 ] didemnin B [pGlu-[Ala^9]DB]	500	–
N-Benzyloxycarbonly-L-[Alaninyl^9 ]didemnin B [Cbz-[Ala^9]DB]	2	–
N-Benzyloxycarbonyl-L-alaninyl-didemnin A [Cbz-Alaninyl DA]	3	–
N-Benzyloxycarbonyl-L-glutaminyl-didemnin A [Cbz-Glutaminyl DA]	8	–
Pro-Didemnin A [Prolyl DA]	12	–
